# Reference: patent publication US20240374558A1, “PREPARATION OF PHENE[…] […] STEREOISOMERS THEREOF AND PRECURSORS THEREOF” (priority 2022, published 2024)
# Target: T1, hERG (Homo sapiens, UniProt Q12809)
# T1 construct: host or cells: CHO-K1
# Test: hERG Potassium Channel Assay, Qube APC
# Format: cell-based
# Settings: Antagonist mode; CHO-hERG; test compound
# Protocol: Where presented, IC50 values were determined by a non-linear, least squares regression analysis.
# Recombinant HEK-293 cells stably transfected with human NavL.5 cDNA, recombinant HEK293 cell line expressing the human Cavl.2 (L-type voltage gated calcium channel, hCavl.2 alC/02a/a281, and recombinant CHO-K1 cells stably transfected with human hERG cDNA were used separately in each of these assays.
# Ion Channels tested were Eurofins Panel Part Number: CPROFullQB2DR Voltage-Gated Sodium: HEK-Nav1.5 (Peak), HEK-Nav1.5 (Late, Antagonist) Voltage-Gated Potassium: HEK-Kv4.3/KChIP2, CHO-hERG, CHO-KCNQ1/minK Voltage-Gated Calcium: HEK-Cav1.2 Inward-Rectifying Voltage-Gated Potassium: HEK-Kir2.1.
# hERG Potassium Channel Assay—Qube APC After whole cell configuration is achieved, the cells are held at −80 mV. Cells are held at this voltage for 50 ms to measure the leak current, which is subtracted from the tail current on-line. The cells are depolarized to +40 mV for 500 ms and then to −80 mV over a 100 ms ramp to elicit the hERG tail current. This paradigm is delivered once every 8s to monitor the current amplitude.
# T1 sequence (Q12809 whole entry): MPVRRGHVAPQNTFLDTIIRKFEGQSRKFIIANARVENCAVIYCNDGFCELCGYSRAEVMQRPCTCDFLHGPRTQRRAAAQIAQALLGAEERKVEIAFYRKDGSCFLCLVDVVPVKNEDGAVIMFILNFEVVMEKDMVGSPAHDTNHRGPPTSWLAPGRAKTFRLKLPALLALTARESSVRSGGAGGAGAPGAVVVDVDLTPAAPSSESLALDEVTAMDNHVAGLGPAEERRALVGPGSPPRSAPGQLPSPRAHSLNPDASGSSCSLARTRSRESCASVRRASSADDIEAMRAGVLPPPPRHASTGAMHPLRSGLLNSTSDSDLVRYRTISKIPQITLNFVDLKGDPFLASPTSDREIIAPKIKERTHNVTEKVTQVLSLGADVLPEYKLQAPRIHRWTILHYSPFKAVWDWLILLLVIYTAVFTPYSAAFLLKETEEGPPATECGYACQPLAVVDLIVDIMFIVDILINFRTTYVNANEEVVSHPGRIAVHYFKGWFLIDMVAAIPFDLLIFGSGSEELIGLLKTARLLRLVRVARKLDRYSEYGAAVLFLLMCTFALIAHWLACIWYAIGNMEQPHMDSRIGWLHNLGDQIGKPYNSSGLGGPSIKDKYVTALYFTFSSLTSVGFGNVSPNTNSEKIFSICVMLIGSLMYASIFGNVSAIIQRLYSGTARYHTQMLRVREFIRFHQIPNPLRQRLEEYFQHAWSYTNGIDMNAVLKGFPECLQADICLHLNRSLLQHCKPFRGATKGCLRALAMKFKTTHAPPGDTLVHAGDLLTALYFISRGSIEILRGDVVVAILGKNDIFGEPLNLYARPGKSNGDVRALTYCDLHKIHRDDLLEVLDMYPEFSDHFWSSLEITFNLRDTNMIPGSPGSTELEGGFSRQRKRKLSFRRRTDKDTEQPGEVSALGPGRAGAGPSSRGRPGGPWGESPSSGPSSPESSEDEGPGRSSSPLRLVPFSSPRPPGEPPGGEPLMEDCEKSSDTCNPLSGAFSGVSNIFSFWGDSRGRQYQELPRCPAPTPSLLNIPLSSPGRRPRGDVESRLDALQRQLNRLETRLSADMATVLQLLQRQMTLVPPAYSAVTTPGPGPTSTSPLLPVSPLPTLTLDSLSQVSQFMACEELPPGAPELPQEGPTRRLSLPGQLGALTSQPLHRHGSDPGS
row,Structure (SMILES),Estimated IC50
1,CN[C@@H](C)C(=O)c1ccc2c(c1)OCO2 [(S)-methylone],N/C (N/C indicates observed mean inhibition was <25%)
2,CN[C@H](C)C(=O)c1ccc2c(c1)OCO2 [(R)-methylone],N/C (N/C indicates observed mean inhibition was <25%)
